These results are taken from patent US20220402935A1, “HETEROCYCLIC COMPOUND” (FIMECS, INC., priority 2019, published 2022).

pIC50: −log10 of the molar value. A value given as a limit tells only on which side of the number the result lay.

The target of the first test is T1, IRAK-M (Homo sapiens, UniProt Q9Y616).
T1 sequence (Q9Y616 1-596): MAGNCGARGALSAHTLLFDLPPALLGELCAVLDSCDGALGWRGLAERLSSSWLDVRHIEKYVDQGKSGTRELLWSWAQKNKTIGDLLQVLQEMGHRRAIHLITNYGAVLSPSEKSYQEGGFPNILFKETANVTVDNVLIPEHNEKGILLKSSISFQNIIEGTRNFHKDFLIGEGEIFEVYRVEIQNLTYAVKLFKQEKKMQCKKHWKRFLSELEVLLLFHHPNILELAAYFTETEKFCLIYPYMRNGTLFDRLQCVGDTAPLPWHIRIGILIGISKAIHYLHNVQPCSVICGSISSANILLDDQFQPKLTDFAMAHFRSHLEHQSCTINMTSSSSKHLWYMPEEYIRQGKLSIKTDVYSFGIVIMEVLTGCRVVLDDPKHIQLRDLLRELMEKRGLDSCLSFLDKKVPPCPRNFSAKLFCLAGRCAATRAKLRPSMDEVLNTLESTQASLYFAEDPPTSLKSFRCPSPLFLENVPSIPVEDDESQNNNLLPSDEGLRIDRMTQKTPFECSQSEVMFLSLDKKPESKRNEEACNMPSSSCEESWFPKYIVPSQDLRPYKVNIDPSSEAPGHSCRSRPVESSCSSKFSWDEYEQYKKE
Description: IRAK-M binding inhibitory activity (KINOMEscan active site-dependent competitive assay). More on the design: purchased Eurofins Discover X. As to conditions: concentration of the test compound 1 μM; first symbol of cell; read-out: IRAK-M binding inhibition activity % Ctrl. The procedure:
IRAK-M binding inhibitory activity was evaluated using active site-dependent competitive assay KINOMEscan® provided by Eurofins Discover X (Goldstein, D. M. et al. High-throughput kinase profiling as a platform for drug discovery. Nat. Rev. Drug Discovery. 7, 391-397 (2008)). IRAK-M binding inhibitory activity of the test compound was evaluated. […] The “% Ctrl” is calculated by the following formula.
(test compound signal−positive control compound signal)/(negative control compound signal−positive control compound signal)×100
Negative control compound=DMSO (100 Ctrl)
Positive control compound=control compound (0%×Ctrl)
With `Ic1cc2ncnc(OC3CCSCC3)c2s1` [Ref. example 35, 6-iodo-4-((tetrahydro-2H-thiopyran-4-yl)oxy)thieno[3,2-d]pyrimidine], the remaining binding at 1 µM is at least 75%.

For `c1csc(CN2CCC(Oc3ccnc4ccsc34)CC2)n1` [Ref. example 79, 7-((1-(thiazol-2-ylmethyl)piperidin-4-yl)oxy)thieno[3,2-b]pyridine], the remaining binding at 1 µM lay within 25 to 50%.

`O=S(=O)(CCc1ccccc1)N1CCC(Oc2ncnc3ccsc23)CC1` [Ref. example 63, 4-((1-(phenethylsulfonyl)piperidin-4-yl)oxy)thieno[3,2-d]pyrimidine]: the remaining binding at 1 µM was under 25%.

For `CC(C)(C)OC(=O)N1CCC(CS(=O)(=O)N2CCC(Oc3ncnc4ccsc34)CC2)CC1` [Ref. example 42, tert-butyl 4-(((4-(thieno[3,2-d]pyrimidin-4-yloxy)piperidin-1-yl)sulfonyl)methyl)piperidine-1-carboxylate], the remaining binding at 1 µM fell in the range of 50 to 75%.

On to `O=S(=O)(c1ccc(F)cc1)N1CCC(Oc2ncnc3ccsc23)CC1` [Ref. example 53, 4-((1-((4-fluorophenyl)sulfonyl)piperidin-4-yl)oxy)thieno[3,2-d]pyrimidine], for which the remaining binding at 1 µM was 25 to 50%.

Take `Cc1ncsc1-c1ccc(CNC(=O)[C@@H]2C[C@@H](O)CN2C(=O)[C@H](C(C)C)N2Cc3ccccc3C2=O)c(OCCOCCOc2cc(CN3CCC(Oc4ccnc5ccsc45)CC3)on2)c1` [Example 63, (2S,4R)-4-hydroxy-1-((S)-3-methyl-2-(1-oxoisoindolin-2-yl)butanoyl)-N-(4-(4-methylthiazol-5-yl)-2-(2-(2-((5-((4-(thieno[3,2-b]pyridin-7-yloxy)piperidin-1-yl)methyl)isoxazol-3-yl)oxy)ethoxy)ethoxy)benzyl)pyrrolidine-2-carboxamide]: the remaining binding at 1 µM was under 25%.

Take `c1ccc(CCNc2ncnc3cc(-c4ccccc4)sc23)cc1` [Ref. example 17, N-phenethyl-6-phenylthieno[3,2-d]pyrimidin-4-amine]: the remaining binding at 1 µM was at least 75%.

On to `O=S(=O)(c1ccc(Cl)cc1)N1CCC(Oc2ncnc3ccsc23)CC1` [Ref. example 52, 4-((1-((4-chlorophenyl)sulfonyl)piperidin-4-yl)oxy)thieno[3,2-d]pyrimidine], for which the remaining binding at 1 µM was under 25%.

Regarding `Cc1cc2nccc(OC3CCN(C(C)c4cc(O)no4)CC3)c2s1` (centres unmarked) [Ref. example 88, 5-(1-(4-((2-methylthieno[3,2-b]pyridin-7-yl)oxy)piperidin-1-yl)ethyl)isoxazol-3-ol], the remaining binding at 1 µM lay within 25 to 50%.

Take `Cc1cc(Nc2ncnc3ccsc23)n(-c2ccccn2)n1` [Ref. example 25, N-(3-methyl-1-(pyridin-2-yl)-1H-pyrazol-5-yl)thieno[3,2-d]pyrimidin-4-amine]: the remaining binding at 1 µM is 25 to 50%.

Consider `FC(F)(F)c1cc(Nc2ncnc3ccsc23)ccn1` [Ref. example 22, N-(2-(trifluoromethyl)pyridin-4-yl)thieno[3,2-d]pyrimidin-4-amine], for which the remaining binding at 1 µM was in the range of 50 to 75%.

For the compound `COc1ccccc1S(=O)(=O)N1CCC(Oc2ncnc3ccsc23)CC1` [Ref. example 46, 4-((1-((2-methoxyphenyl)sulfonyl)piperidin-4-yl)oxy)thieno[3,2-d]pyrimidine], the remaining binding at 1 µM is under 25%.

Turning to `c1ccc(OC2CCOC2)c(Nc2ncnc3ccsc23)c1` (centres unmarked) [Ref. example 19, N-(2-((tetrahydrofuran-3-yl)oxy)phenyl)thieno[3,2-d]pyrimidin-4-amine], the remaining binding at 1 µM fell in the range of 50 to 75%.

Regarding `O=S1(=O)CCC(Oc2ncnc3cc(I)sc23)CC1` [Ref. example 37, 4-((6-iodothieno[3,2-d]pyrimidin-4-yl)oxy)tetrahydro-2H-thiopyran 1,1-dioxide], the remaining binding at 1 µM is at least 75%.

In the case of `NC(=O)c1ccc(Nc2nc(Cl)nc3ccsc23)cc1` [Ref. example 33, 4-((2-chlorothieno[3,2-d]pyrimidin-4-yl)amino)benzamide], the remaining binding at 1 µM is at least 75%.

On to `O=C(Cn1nccn1)N1CCC(Oc2ccnc3ccsc23)CC1` [Ref. example 82, 1-(4-(thieno[3,2-b]pyridin-7-yloxy)piperidin-1-yl)-2-(2H-1,2,3-triazol-2-yl)ethan-1-one], for which the remaining binding at 1 µM fell in the range of 50 to 75%.

Turning to `COc1ccc(S(=O)(=O)N2CCC(Oc3ncnc4ccsc34)CC2)cc1` [Ref. example 51, 4-((1-((4-methoxyphenyl)sulfonyl)piperidin-4-yl)oxy)thieno[3,2-d]pyrimidine], the remaining binding at 1 µM was in the range of 25 to 50%.

In the case of `O=S(=O)(c1ccccc1F)N1CCC(Oc2ncnc3ccsc23)CC1` [Ref. example 49, 4-((1-((2-fluorophenyl)sulfonyl)piperidin-4-yl)oxy)thieno[3,2-d]pyrimidine], the remaining binding at 1 µM was in the range of 25 to 50%.

As to `C#Cc1cc2ncnc(OC3CCN(C)CC3)c2s1` [Ref. example 32, 6-ethynyl-4-((1-methylpiperidin-4-yl)oxy)thieno[3,2-d]pyrimidine], the remaining binding at 1 µM was at least 75%.

With `c1ccc(Nc2ncnc3cc(-c4ccccc4)sc23)cc1` [Ref. example 12, N,6-diphenylthieno[3,2-d]pyrimidin-4-amine], the remaining binding at 1 µM was at least 75%.

As for `C=CCOc1cc(C(C)N2CCC(Oc3ccnc4cc(C)sc34)CC2)on1` (racemic) [Ref. example 7, 3-(allyloxy)-5-(1-(4-((2-methylthieno[3,2-b]pyridin-7-yl)oxy)piperidin-1-yl)ethyl)isoxazole (racemate)], the remaining binding at 1 µM was under 25%.

The same test, now with this note: second symbol of cell; read-out: IRAK-M binding inhibition IC50 value.
For the compound `C=CCOc1cc(CN2CCC(Oc3ccnc4cc(C#N)sc34)CC2)on1` [Ref. example 86, 7-((1-((3-(allyloxy)isoxazol-5-yl)methyl)piperidin-4-yl)oxy)thieno[3,2-b]pyridine-2-carbonitrile], the pIC50 was 6.52 to 7.00.

`COCCOc1cc(CN2CCC(Oc3ccnc4ccsc34)CC2)on1` [Ref. example 85, 3-(2-methoxyethoxy)-5-((4-(thieno[3,2-b]pyridin-7-yloxy)piperidin-1-yl)methyl)isoxazole]: the pIC50 was 6.52 to 7.00.

In the case of `O=C1CCC(N2C(=O)c3cccc(OCCOCCOCCOc4cc(CN5CCC(Oc6ccnc7ccsc67)CC5)on4)c3C2=O)C(=O)N1` (centres unmarked) [Example 65, 2-(2,6-dioxopiperidin-3-yl)-4-(2-(2-(2-((5-((4-(thieno[3,2-b]pyridin-7-yloxy)piperidin-1-yl)methyl)isoxazol-3-yl)oxy)ethoxy)ethoxy)ethoxy)isoindoline-1,3-dione], the pIC50 was 6.00 to 6.52.

Regarding `C=CCOc1cc(C(C)N2CCC(Oc3ccnc4ccsc34)CC2)on1` (single isomer, unassigned) [Ref. example 5, 3-(allyloxy)-5-(1-(4-(thieno[3,2-b]pyridin-7-yloxy)piperidin-1-yl)ethyl)isoxazole (enantiomer)], the pIC50 is 7.00 to 7.52.

Regarding `C=CCOc1cc(C(C)N2CCC(Oc3ccnc4ccsc34)CC2)on1` (centres unmarked) [Ref. example 83, 3-(allyloxy)-5-(1-(4-(thieno[3,2-b]pyridin-7-yloxy)piperidin-1-yl)ethyl)isoxazole], the pIC50 was over 7.52.

Broadly, the pIC50 is the negative decadic logarithm of the IC50, by convention in mol/L.
